Here are results for three molecules from US7998940B2, “Aptamers to von Willebrand factor and their use as thrombotic disease therapeutics” (Archemix Corp., priority 2004, dated 2011).

One data set concerns platelet function. The data set can be described thus: ex vivo PFA-100 platelet function after 0.5 mg/kg IV bolus in cynomolgus macaques. Conditions: 0.5 mg/kg single IV bolus. How it is done:
(§1) Following IV administration, blood was collected percutaneously at various time points post-dose for PK and PD analysis. PD effect of ARC1779 on platelet function was determined by PFA-100 assays and effect of ARC1779 on bleeding was measured by CBT time. In addition, plasma samples were analyzed by HPLC for quantitation of ARC1779 levels. PK parameter estimates were determined by 2-compartment analysis.
(§2) C. macaques were dosed at 0.5 mg/kg IV bolus with ARC1779 (SEQ ID NO 320). PFA-100 closure time, BIPA and cutaneous bleeding time (“CBT”) were all measured as a function of time throughout the studies. BIPA and PFA-100 closure times were measured as described in previously in Example 3. Cutaneous bleeding times were measured using standard protocols described as follows.

Data set [1] in a line: cutaneous bleeding time (CBT) in cynomolgus macaques. It is filed as in vivo. Conditions: in words. As for the experimental part: as §1, §2
A blood pressure cuff was applied to the biceps region of the forearm to be tested and inflated to maintain a constant pressure of 40 mmHg. Using a Surgicutt® Automated Incision Device (ITC, Edison, N.J.), a longitudinal incision was made over the lateral aspect of the volar surface of the forearm distal to the antecubital crease. A stopwatch was started at the time of incision. […] Bleeding time is determined to within 30 seconds of the time when blood is no longer wicked onto the paper. […]

A short description of data set [2]: pharmacokinetics of ARC1779 after 0.5 mg/kg IV bolus in cynomolgus macaques (HPLC). It counts as in vivo. Conditions: 0.5 mg/kg single IV bolus, 2-compartment analysis. How it is done: -PK/PD correlation of ARC1779 was evaluated in three cynomolgus macaques after a single intravenous (IV) bolus dose at 0.5 mg/kg. ARC1779 levels in the plasma were correlated to PD effects of ARC1779 in inhibition of platelet function or prolongation of cutaneous bleeding time (CBT).
as §1

For data set [3], the system named is vWF dependent platelet plug formation, cynomolgus whole blood. Briefly: PFA-100 assay, cynomolgus macaque whole blood. It is filed as cell-based, cynomolgus macaques. To be noted: minimum concentration that extends closing time to 300 seconds. From the text: Another assay of this Example, using the PFA-100 instrument, is an agonist independent but vWF dependent assay that uses the PFA-100 instrument (Harrison et al., Clin. Lab. Haem., v24, p 225-32 (2002)). The PFA-100 simulates the formation of a hemostatic plug under conditions of high shear force in vivo by recording the time required for a platelets to aggregate and block the flow of citrated whole blood through a microscopic aperture in a membrane coated with collagen and either epinephrine or ADP. This activity is von Willebrand factor dependent as high MW vWF multimers bind to immobilized collagen on the membrane and then bind to and activate platelets because of the shear force induced by drawing the blood through the microscopic aperture.
Fresh whole blood was collected from healthy non-steroidal anti-inflammatory drug (NSAID) free cynomolgus macaques. […]
In order to assay the titration of aptamer in whole blood, the aptamer was added to no-additive vacutainer tubes and diluted to the desired concentrations (ex: 0 nM, 1 nM to 1000 nM) using physiological saline such that the final volume was […]. When the PFA-100 was ready to run the next set of samples, 1940 μl of whole blood was added to the tube containing a concentration of aptamer. […] The time of occlusion of the aperture was measured by the PFA-100, with a maximal time of 300 seconds. […]

For the next data set, the target named is vWF (Homo sapiens, UniProt P04275, D1472H/Q852R/T1381A). Briefly: cellular / biological vWF dependent assays of Example 3, not specified further. Conditions: in words; FACS, BIPA (and PFA-100) assays of Example 3. It is filed as cell-based. An excerpt:
The effectiveness of various aptamers in blocking vWF function in several biological assays is described in this Example.
In one assay botrocetin is used. Botrocetin, a protein isolated from snake venom, is known to induce von Willebrand Factor binding to the gpib receptor on live and fixed platelets. This reaction causes agglutination of suspensions of fixed platelets via vWF multimerization. In preparations of platelet rich plasma (hereinafter “PRP”), vWF/botrocetin induction of agglutination is followed by a second phase of platelet aggregation caused by metabolic activation of the platelets. These two reactions: vWF binding to fixed platelets and vWF mediated platelet aggregation, can be used to measure the activity of aptamers of the invention.

“Also recorded” adds a separate entry of the source. [invdT] = inverted (3'-3') thymidine; d = 2'-deoxy (DNA); m = 2'-O-methyl

Chain of vWF (P04275 764-2813 Q852R/T1381A/D1472H): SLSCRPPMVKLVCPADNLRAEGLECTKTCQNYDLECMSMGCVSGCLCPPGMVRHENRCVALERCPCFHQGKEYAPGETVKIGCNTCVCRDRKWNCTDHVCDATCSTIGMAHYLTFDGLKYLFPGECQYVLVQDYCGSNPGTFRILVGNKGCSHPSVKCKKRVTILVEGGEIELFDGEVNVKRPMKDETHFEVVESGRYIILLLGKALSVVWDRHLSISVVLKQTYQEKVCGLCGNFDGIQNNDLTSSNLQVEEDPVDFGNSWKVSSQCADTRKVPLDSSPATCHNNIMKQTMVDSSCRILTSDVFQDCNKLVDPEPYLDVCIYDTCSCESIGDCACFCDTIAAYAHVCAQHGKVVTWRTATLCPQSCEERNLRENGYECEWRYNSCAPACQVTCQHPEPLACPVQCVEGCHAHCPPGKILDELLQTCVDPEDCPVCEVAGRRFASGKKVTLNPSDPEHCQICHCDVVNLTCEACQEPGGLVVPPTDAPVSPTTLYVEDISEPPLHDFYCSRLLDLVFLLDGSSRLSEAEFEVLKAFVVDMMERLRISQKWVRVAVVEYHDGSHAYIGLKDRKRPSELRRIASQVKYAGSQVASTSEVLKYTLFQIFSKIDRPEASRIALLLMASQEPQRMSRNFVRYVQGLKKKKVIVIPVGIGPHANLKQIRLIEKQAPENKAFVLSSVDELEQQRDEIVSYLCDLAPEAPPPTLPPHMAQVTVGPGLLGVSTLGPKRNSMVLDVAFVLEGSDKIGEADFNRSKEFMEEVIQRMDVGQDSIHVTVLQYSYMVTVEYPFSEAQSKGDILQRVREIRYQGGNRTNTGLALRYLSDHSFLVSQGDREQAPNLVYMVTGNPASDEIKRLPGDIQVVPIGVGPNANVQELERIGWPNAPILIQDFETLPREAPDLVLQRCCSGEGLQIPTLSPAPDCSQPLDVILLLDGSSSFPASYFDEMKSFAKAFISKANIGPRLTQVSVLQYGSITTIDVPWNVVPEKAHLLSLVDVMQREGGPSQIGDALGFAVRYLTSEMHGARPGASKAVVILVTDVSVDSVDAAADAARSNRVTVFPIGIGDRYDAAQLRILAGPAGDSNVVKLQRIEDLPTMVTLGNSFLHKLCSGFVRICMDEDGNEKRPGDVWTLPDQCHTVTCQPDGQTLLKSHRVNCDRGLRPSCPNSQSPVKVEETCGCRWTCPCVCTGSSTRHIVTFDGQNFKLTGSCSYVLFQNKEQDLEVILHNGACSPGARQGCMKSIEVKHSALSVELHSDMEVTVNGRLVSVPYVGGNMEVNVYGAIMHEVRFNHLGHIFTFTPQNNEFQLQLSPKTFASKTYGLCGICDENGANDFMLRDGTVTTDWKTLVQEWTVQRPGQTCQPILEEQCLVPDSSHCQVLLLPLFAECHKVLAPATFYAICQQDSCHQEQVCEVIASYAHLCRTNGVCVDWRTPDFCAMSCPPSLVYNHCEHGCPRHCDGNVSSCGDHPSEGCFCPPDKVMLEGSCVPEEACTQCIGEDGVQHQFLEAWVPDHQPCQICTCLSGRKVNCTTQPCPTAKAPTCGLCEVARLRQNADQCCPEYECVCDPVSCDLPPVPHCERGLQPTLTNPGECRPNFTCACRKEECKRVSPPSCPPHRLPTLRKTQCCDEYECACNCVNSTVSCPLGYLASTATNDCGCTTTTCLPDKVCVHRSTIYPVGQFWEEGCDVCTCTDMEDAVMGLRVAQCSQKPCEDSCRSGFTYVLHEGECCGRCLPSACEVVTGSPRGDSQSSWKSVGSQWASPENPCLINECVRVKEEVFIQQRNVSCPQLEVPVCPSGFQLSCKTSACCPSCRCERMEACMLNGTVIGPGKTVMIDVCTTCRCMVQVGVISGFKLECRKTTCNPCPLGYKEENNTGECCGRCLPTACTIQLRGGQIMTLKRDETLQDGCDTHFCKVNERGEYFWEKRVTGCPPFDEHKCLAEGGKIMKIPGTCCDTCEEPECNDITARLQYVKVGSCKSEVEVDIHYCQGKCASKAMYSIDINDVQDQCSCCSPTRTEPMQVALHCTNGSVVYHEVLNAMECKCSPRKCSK

As to “PEG20K-NH2-mGmCmGmUdGdCdAmGmUmGmCmCmUmUmCmGmGmCdCmG-s-TmGdCdGdGTmGmCdCmUdCdCmGmUdCmAmCmGmC-3T [ARC1779]”, in the data set with platelet function, the “plasma concentration at which platelet function returned to normal (PFA-100)” value is “approximately 77 nM”. For the same molecule, the “effect on cutaneous bleeding time” value in data set [1] (0.5 mg/kg single IV bolus, 0.5 mg/kg) is recorded as “minimal effect; also recorded: very little increase”. In addition, the “cutaneous bleeding time in the electrolytic thrombosis model” value in data set [1] (FIG. 34, various doses and time points) was “at some doses and/or time points in this animal model prolonged CBT was observed, while at other doses and time points CBT was not prolonged”. Also, the “distribution half-life (t1/2α)” value in data set [2] is “approximately 1.0 hour”.

With “mGmCmGmUdGdCdAmGmUmGmCmCmUmUmCmGmGmCdCmG-s-TmGdCdGdGTmGmCdCmUdCdCmGmUdCmAmCmGmC-3T (GCGUGCAGUGCCUUCGGCCGTGCGGTGCCUCCGUCACGC; sugars from the 5' end mmmmdddmmmmmmmmmmmdmdmddddmmdmddmmdmmmm, [invdT] at 3' end, backbone not given here) [ARC1368]”, the “~IC95 PFA-100 (nM) with citrated C. macaque whole blood” value in data set [3] was approximately 100 nM.

B1: AMX237.G6: DNA SELEX 2 aptamer clone (nucleic acid)
DNA: CTACCTACGATCTGACTAGCGTGCAGTGCCTATTCCAGGCCGTGCGGTGCCTCCGTCACGCTTACTCTCATGTAGTTCC
modifications: DNA, backbone and methylation of C not given here
notes: DNA SELEX 2 aptamer clone
For the molecule B1, the “activity in the cellular / biological assays” value with vWF was “slightly more potent”.
